Our source for the Emax and DC50 values is ChEMBL document CHEMBL4706763, “Targeting IRAK1 for Degradation with PROTACs” (ACS Med Chem Lett, 2021).

The target in experiment [1] is T1, von Hippel-Lindau disease tumor suppressor/Interleukin-1 receptor-associated kinase 1 (Homo sapiens, UniProt P51617+P40337). Nature of the experiment: Protac activity at VHL/IRAK1 in HEK293T cells assessed as induction of IRAK1 degradation at 10 uM measured after 24 hrs by Western blot analysis relative to control. Type of experiment: cell-based.
Target sequence in this assay (P40337 whole entry, looked up): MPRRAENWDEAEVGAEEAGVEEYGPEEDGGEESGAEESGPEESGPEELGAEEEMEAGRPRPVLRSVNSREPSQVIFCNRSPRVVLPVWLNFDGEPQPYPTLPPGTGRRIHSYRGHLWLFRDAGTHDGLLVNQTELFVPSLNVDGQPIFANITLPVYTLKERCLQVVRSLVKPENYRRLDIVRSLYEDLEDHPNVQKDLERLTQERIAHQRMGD
Target sequence in this assay (P51617 whole entry, looked up): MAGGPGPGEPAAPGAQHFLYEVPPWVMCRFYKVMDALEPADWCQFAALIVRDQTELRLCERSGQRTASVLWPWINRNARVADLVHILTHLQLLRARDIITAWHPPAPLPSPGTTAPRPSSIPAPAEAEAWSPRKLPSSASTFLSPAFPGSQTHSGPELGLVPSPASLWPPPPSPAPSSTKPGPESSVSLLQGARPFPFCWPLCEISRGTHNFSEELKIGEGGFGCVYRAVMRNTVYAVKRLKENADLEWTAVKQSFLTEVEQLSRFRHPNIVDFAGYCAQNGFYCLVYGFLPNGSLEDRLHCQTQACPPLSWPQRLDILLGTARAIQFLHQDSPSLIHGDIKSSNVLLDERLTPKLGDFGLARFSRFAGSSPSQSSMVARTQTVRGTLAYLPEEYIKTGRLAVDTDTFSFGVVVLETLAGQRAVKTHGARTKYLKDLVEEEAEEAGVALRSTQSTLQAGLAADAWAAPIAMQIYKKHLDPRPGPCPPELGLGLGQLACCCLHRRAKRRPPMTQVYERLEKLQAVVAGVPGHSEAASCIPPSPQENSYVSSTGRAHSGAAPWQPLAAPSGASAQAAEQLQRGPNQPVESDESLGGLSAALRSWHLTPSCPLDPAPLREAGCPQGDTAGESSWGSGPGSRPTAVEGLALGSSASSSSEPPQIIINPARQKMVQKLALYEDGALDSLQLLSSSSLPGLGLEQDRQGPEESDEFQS
Experiment [2] concerns the target T1, von Hippel-Lindau disease tumor suppressor/Interleukin-1 receptor-associated kinase 1. Nature of the experiment: Protac activity at VHL/IRAK1 in HEK293T cells assessed as induction of IRAK1 degradation measured after 24 hrs by Western blot analysis. In kind it is cell-based.
Target sequence in this assay (P51617 whole entry): as the sequence (P51617 whole entry, looked up) above
Target sequence in this assay (P40337 whole entry): as the sequence (P40337 whole entry, looked up) above

As to `COc1cc(N2CC[C@H](OCC(=O)N[C@H](C(=O)N3C[C@H](O)C[C@H]3C(=O)N[C@@H](C)c3ccc(-c4scnc4C)cc3)C(C)(C)C)[C@@H](C)C2)ccc1NC(=O)c1cccc(-c2ccn[nH]2)n1`, the Emax in experiment [1] was 95%.

For the compound `COc1cc(N2CC[C@@H](OCC(=O)N[C@H](C(=O)N3C[C@H](O)C[C@H]3C(=O)N[C@@H](C)c3ccc(-c4scnc4C)cc3)C(C)(C)C)[C@H](C)C2)ccc1NC(=O)c1cccc(-c2ccn[nH]2)n1`, the Emax in experiment [1] was found to be 96%. Also, the 50% degradation concentration (DC50) in experiment [2] was determined as 21 nM.

Turning to `COc1cc(N2CCC(OCC(=O)N[C@H](C(=O)N3C[C@H](O)C[C@H]3C(=O)NCc3ccc(-c4scnc4C)cc3F)C(C)(C)C)CC2)ccc1NC(=O)c1cccc(-c2ccn[nH]2)n1`, the maximum response (Emax) in experiment [1] was found to be 96%. Besides, the DC50 in experiment [2] stood at 13 nM.

Turning to `COc1cc(N2CCN(C(=O)OCC(=O)N[C@H](C(=O)N3C[C@H](O)C[C@H]3C(=O)NCc3ccc(-c4scnc4C)cc3)C(C)(C)C)CC2)ccc1NC(=O)c1cccc(-c2ccn[nH]2)n1`, the Emax in experiment [1] was 97%. Moreover, in experiment [2], the DC50 came to 16 nM.

On to `COc1cc(N2CCC(OCC(=O)N[C@H](C(=O)N3C[C@H](O)C[C@H]3C(=O)NCc3ccc(-c4scnc4C)cc3)C(C)(C)C)CC2)ccc1NC(=O)c1cccc(-c2ccn[nH]2)n1`, for which the Emax in experiment [1] was determined as 95%. Moreover, the 50% degradation concentration (DC50) in experiment [2] amounted to 16 nM.

As to `COc1cc(N2CCC(OCC(=O)N[C@H](C(=O)N3C[C@H](O)C[C@H]3C(=O)N[C@@H](C)c3ccc(-c4scnc4C)cc3)C(C)(C)C)CC2)ccc1NC(=O)c1cccc(-c2ccn[nH]2)n1`, the maximal response (Emax) in experiment [1] stood at 96%. Besides, in experiment [2], the half-maximal degradation concentration (DC50) is 3 nM.

As for `COc1cc(N2CCN(C(=O)OCC(=O)N[C@H](C(=O)N3C[C@H](O)C[C@H]3C(=O)N[C@@H](C)c3ccc(-c4scnc4C)cc3)C(C)(C)C)CC2)ccc1NC(=O)c1cccc(-c2ccn[nH]2)n1`, the maximal response (Emax) in experiment [1] turned out to be 90%. In experiment [2], the DC50 came to 9 nM.

Take `COc1cc(N2CC[C@@H](OCC(=O)N[C@H](C(=O)N3C[C@H](O)C[C@H]3C(=O)N[C@@H](C)c3ccc(-c4scnc4C)cc3)C(C)(C)C)C[C@@H]2C)ccc1NC(=O)c1cccc(-c2ccn[nH]2)n1`: in experiment [1], the Emax was determined as 94%. The 50% degradation concentration (DC50) in experiment [2] came out at 13 nM.
